The values below come from patent US20190100534A1, “Cephem Compounds with Latent Reactive Groups” (Gladius Pharmaceuticals, Inc., priority 2017, published 2019).

Assay type in all cases: cell-based
One experiment relates to E. coli J53 Alone. As to the kind of experiment: MIC determination, isogenic E. coli strains. As to conditions: for MIC: Escherichia coli, J53ALONE, 18 h, read-out: Mimimum Inhibitory Concentrations, J53 Alone; for Mimimum Inhibitory Concentrations, J53 Alone: Table 4-2, CAMH broth, 20 μM Apo-Transferrin, 37° C., 18 hours. An outline of the steps:
(§1)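 MIC read as the lowest compound level giving a transparent well after 18 h at 37° C. Strains: parent E. coli J53 and isogenic transformants expressing plasmid-borne (pBC-SK(+)) beta-lactamases such as DHA-1; inoculum 0.5 McFarland; CAMH broth plus 20 μM apo-transferrin; compound 64 μg/mL downward, 2-fold dilutions.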

The subject of experiment [1] is Isogenic E. coli J58 strain carrying DHA-1. As to the kind of experiment: MIC determination, isogenic E. coli strains. As to conditions: Escherichia coli, 18 h, read-out: Mimimum Inhibitory Concentrations, DHA-1. An outline of the steps:
as §1

For experiment [2], the system named is Isogenic E. coli J58 strain carrying NDM-1. Kind of experiment: MIC determination, isogenic E. coli strains. As to conditions: Escherichia coli, 18 h, read-out: Mimimum Inhibitory Concentrations, NDM-1. The gist of the method:
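Broth microdilution was run in cation-adjusted Mueller-Hinton broth supplemented with 20 μM apo-transferrin, using a 64 μg/mL top concentration diluted twofold. The inoculum was NDM-1-expressing E. coli J53 (pBC-SK(+) plasmid) at 0.5 McFarland. After overnight incubation (18 h, 37° C), the lowest compound concentration preventing visible growth was recorded as the MIC.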

In experiment [3] the test system is Isogenic E. coli J58 strain carrying CTX-M-14. Kind of experiment: MIC determination, isogenic E. coli strains. The following applies: Escherichia coli, 18 h, read-out: Mimimum Inhibitory Concentrations, CTX-M-14. An outline of the steps: (§2)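 Isogenic E. coli J53 carrying plasmid-encoded CTX-M-14 or CTX-M-15 (ampicillin-selected), standardized to 0.08-0.1 OD600, incubated overnight (18 h, 37° C.) in CAMH broth plus 20 μM apo-transferrin over 2-fold compound dilutions starting at 64 μg/mL. Lowest concentration with no visible growth recorded as MIC.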

The test system of experiment [4] is Isogenic E. coli J58 strain carrying CTX-M-15. As to the kind of experiment: MIC determination, isogenic E. coli strains. As to conditions: Escherichia coli, 18 h, read-out: Mimimum Inhibitory Concentrations, CTX-M-15. The gist of the method:
as §2

Experiment [5] relates to Pseudomonas aeruginosa PA (URMC-3). As to the kind of experiment: MIC determination. As to conditions: Pseudomonas aeruginosa; PA (URMC-3); CAMH broth, 20 μM Apo-Transferrin, 37° C., 18 hours; read-out: Minimum Inhibitory Concentrations, PA (URMC-3). The gist of the method:
(§3)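 Overnight (18 h, 37 °C) microdilution assay. Pre-grown LB cultures were brought to 0.08-0.1 OD600 in cation-adjusted Mueller-Hinton broth; wells contained 20 μM apo-transferrin and compound between 64 and 0.125 μg/mL. Lowest clear-well concentration recorded as MIC.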

Experiment [6] concerns Pseudomonas aeruginosa PA-RR-(G7294437). As to the kind of experiment: MIC determination. As to conditions: Pseudomonas aeruginosa; PA-RR-(G7294437); CAMH broth, 20 μM Apo-Transferrin, 37° C., 18 hours; read-out: Minimum Inhibitory Concentrations, PA-RR-(G7294437). An outline of the steps:
as §3

Experiment [7] has as its system Pseudomonas aeruginosa PA-RR-(980151052). Kind of experiment: MIC determination. As to conditions: Pseudomonas aeruginosa; PA-RR-(980151052); CAMH broth, 20 μM Apo-Transferrin, 37° C., 18 hours; read-out: Minimum Inhibitory Concentrations, PA-RR-(980151052). An outline of the steps: as §3
In experiment [8] the test system is Pseudomonas aeruginosa PA (RR-2). As to the kind of experiment: MIC determination. As to conditions: Pseudomonas aeruginosa; PA (RR-2); CAMH broth, 20 μM Apo-Transferrin, 37° C., 18 hours; read-out: Minimum Inhibitory Concentrations, PA (RR-2). An outline of the steps:
as §3

Experiment [9] deals with Pseudomonas aeruginosa PA (URMC-2). As to the kind of experiment: MIC determination. As to conditions: Pseudomonas aeruginosa; PA (URMC-2); CAMH broth, 20 μM Apo-Transferrin, 37° C., 18 hours; read-out: Minimum Inhibitory Concentrations, PA (URMC-2). An outline of the steps:
as §3

Experiment [10] concerns Pseudomonas aeruginosa PA-RR-(G7305586). As to the kind of experiment: MIC determination. As to conditions: Pseudomonas aeruginosa; PA-RR-(G7305586); CAMH broth, 20 μM Apo-Transferrin, 37° C., 18 hours; read-out: Minimum Inhibitory Concentrations, PA-RR-(G7305586). The gist of the method:
as §3

For experiment [11], the system named is Pseudomonas aeruginosa PA-RR-(G7304100). Kind of experiment: MIC determination. As to conditions: Pseudomonas aeruginosa; PA-RR-(G7304100); CAMH broth, 20 μM Apo-Transferrin, 37° C., 18 hours; read-out: Minimum Inhibitory Concentrations, PA-RR-(G7304100). An outline of the steps:
as §3

Experiment [12] concerns Pseudomonas aeruginosa PA (RR-1). As to the kind of experiment: MIC determination. As to conditions: Pseudomonas aeruginosa; PA (RR-1); CAMH broth, 20 μM Apo-Transferrin, 37° C., 18 hours; read-out: Minimum Inhibitory Concentrations, PA (RR-1). The gist of the method: as §3
Experiment [13] has as its system Pseudomonas aeruginosa (PA). As to the kind of experiment: MIC determination. The following applies: Pseudomonas aeruginosa; PA; CAMH broth, 20 μM Apo-Transferrin, 37° C., 18 hours; read-out: Minimum Inhibitory Concentrations, PA. The gist of the method: as §3
Experiment [14] relates to Pseudomonas aeruginosa PA-RR-(98023895). Kind of experiment: MIC determination. As to conditions: Pseudomonas aeruginosa; PA-RR-(98023895); CAMH broth, 20 μM Apo-Transferrin, 37° C., 18 hours; read-out: Minimum Inhibitory Concentrations, PA-RR-(98023895). An outline of the steps:
as §3

Experiment [15] relates to Isogenic E. coli J58 strain carrying VIM-2. Kind of experiment: MIC determination, isogenic E. coli strains. As to conditions: Escherichia coli, 18 h, read-out: Mimimum Inhibitory Concentrations, VIM-2. The gist of the method:
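Broth microdilution in cation-adjusted Mueller-Hinton with 20 μM apo-transferrin, compound serially halved from 64 μg/mL, read by eye after 18 h at 37 °C as lowest clear well. Inoculum: VIM-2-expressing E. coli J53 (pBC-SK(+) plasmid), adjusted to 0.5 McFarland.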

Experiment [16] relates to Isogenic E. coli J58 strain carrying TEM-26. Kind of experiment: MIC determination, isogenic E. coli strains. The following applies: Escherichia coli, 18 h, read-out: Mimimum Inhibitory Concentrations, TEM-26. An outline of the steps:
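E. coli J53 carried a pBC-SK(+) plasmid expressing TEM-26 β-lactamase. Compounds were serially halved from […] in CAMH broth containing 20 μM apo-transferrin, inoculated from a 0.5 McFarland culture and held overnight (18 h, 37° C); MIC read as the lowest concentration without visible growth.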

SMILES strings stand for the structures. A value given as a limit tells only on which side of the number the result lay.

As to `Cn1c[n+](Cc2ccc(C=CC3=C(C(=O)O)N4C(=O)[C@@H](NC(=O)/C(=N\OC(C)(C)C(=O)O)c5csc(N)n5)[C@H]4SC3)cc2)cc1C(=O)Nc1ccc(O)c(O)c1` (mixture of isomers) [Compound 411, 3-(4-((E/Z)-2-((6R,7R)-7-((Z)-2-(2-aminothiazol-4-yl)-2-(((2-carboxypropan-2-yl)oxy)imino)acetamido)-2-carboxy-8-oxo-5-thia-1-azabicyclo[4.2.0]oct-2-en-3-yl)vinyl)benzyl)-5-((3,4-dihydroxyphenyl)carbamoyl)-1-methyl-1H-imidazol-3-ium], the MIC was 0.5 µg/mL in the experiment with E. coli J53 Alone; 1 µg/mL in experiment [1]; greater than 64 µg/mL in experiment [2]; 4 µg/mL in experiment [3]; 0.5 µg/mL in [4]; 0.5 µg/mL in experiment [5]. The MIC in [6] was 1 µg/mL; in experiment [7], 8 µg/mL; in [8], 4 µg/mL; in experiment [9], 4 µg/mL; in [10], 16 µg/mL; in experiment [11] it was 1 µg/mL. Also, the MIC in experiment [12] worked out at 4 µg/mL; in experiment [13], 8 µg/mL; in experiment [14], 8 µg/mL; in experiment [15], 2 µg/mL; in experiment [16] it was 8 µg/mL. For the same compound, the “Mimimum Inhibitory Concentrations, J53 Alone” value with E. coli J53 Alone was 0.5 microgram/mL.

As to `CC(C)(O/N=C(\C(=O)N[C@@H]1C(=O)N2C(C(=O)O)=C(C=Cc3ccc(C[n+]4cccc(-c5ccc(O)c(O)c5)c4)cc3)CS[C@H]12)c1csc(N)n1)C(=O)O` (mixture of isomers) [Compound 413, 1-(4-((E/Z)-2-((6R,7R)-7-((Z)-2-(2-aminothiazol-4-yl)-2-(((2-carboxypropan-2-yl)oxy)imino)acetamido)-2-carboxy-8-oxo-5-thia-1-azabicyclo[4.2.0]oct-2-en-3 yl)vinyl)benzyl)-3-(3,4-dihydroxyphenyl)pyridin-1-ium], the MIC in the experiment with E. coli J53 Alone is 0.25 µg/mL; in [1], 0.13 µg/mL; in [2] it was greater than 64 µg/mL; in [3], 2 µg/mL; in [4], 2 µg/mL; in experiment [5], 0.13 µg/mL. Moreover, the MIC in [6] was 1 µg/mL; in experiment [7], 4 µg/mL; in experiment [8] it was 2 µg/mL; in experiment [9] it was 4 µg/mL; in experiment [10], 8 µg/mL; in [11] it was no more than 0.06 µg/mL. The MIC in [12] is 4 µg/mL; in [13] it was 4 µg/mL; in [14], 4 µg/mL; in experiment [15], 0.5 µg/mL; in experiment [16], 1 µg/mL. Further, the “Mimimum Inhibitory Concentrations, J53 Alone” value in the experiment on E. coli J53 Alone amounted to 0.25 microgram/mL.

`Cc1c[n+](Cc2ccc(C=CC3=C(C(=O)O)N4C(=O)[C@@H](NC(=O)/C(=N\OC(C)(C)C(=O)O)c5csc(N)n5)[C@H]4SC3)cc2)ccc1-c1ccc(O)c(O)c1` (mixture of isomers) [Compound 422, 1-(4-((E/Z)-2-((6R,7R)-7-((Z)-2-(2-aminothiazol-4-yl)-2-(((2-carboxypropan-2-yl)oxy)imino)acetamido)-2-carboxy-8-oxo-5-thia-1-azabicyclo[4.2.0]oct-2-en-3-yl)vinyl)benzyl)-4-(3,4-dihydroxyphenyl)-3-methylpyridin-1-ium]: the MIC in the experiment on E. coli J53 Alone is 0.25 µg/mL; in [1] it was 0.25 µg/mL; in experiment [2], greater than 64 µg/mL; in [3], 4 µg/mL; in experiment [4] it was 4 µg/mL; in experiment [5] it was no more than 0.06 µg/mL. Besides, the MIC in experiment [6] is 2 µg/mL; in [7], 8 µg/mL; in experiment [8], 2 µg/mL; in experiment [9], 4 µg/mL; in experiment [10] it was 16 µg/mL; in experiment [11], no more than 0.06 µg/mL. Further, the MIC in experiment [12] is 4 µg/mL; in [13], 8 µg/mL; in [14], 8 µg/mL; in experiment [15], 1 µg/mL; in experiment [16] it was 4 µg/mL. Moreover, the “Mimimum Inhibitory Concentrations, J53 Alone” value in the experiment on E. coli J53 Alone is recorded as 0.25 microgram/mL.
